The values that follow come from PMC8270338, “Exploring New Scaffolds for the Dual Inhibition of HIV-1 RT Polymerase and Ribonuclease Associated Functions” (Molecules, 2021).

Molecules are shown by their SMILES. Structures can show the parent of a compound that is named as a salt. Where two headings read alike, the source gives them in different places.

For data set [1], the target named is T1, HIV-1 RT-associated RNase H (Human immunodeficiency virus type 1 group M subtype B, UniProt P04585).
T1 construct: The full length HIV-1 RT group M subtype B was expressed and purified; made in house
Description: HIV-1 RT-associated DNA polymerase-independent RNase H activity determination. Type of data set: biochemical, HIV-1 group M subtype B. The following applies: full length HIV-1 wt RT, no pre-incubation with the enzyme, 1 h at 37 °C; concentration reducing RNase H activity by 50%. The method, then:
The full length HIV-1 RT group M subtype B was expressed and purified as previously described. The HIV RT-associated RNase H activity was measured as described. […] Reactions were stopped by the addition of EDTA and products were measured with a Perkin–Elmer Victor 3 multilabel counter plate reader (Waltham, MA, USA) at excitation–emission wavelength of 490/528 nm (Table 1).

In data set [2] the target is T2, HIV-1 RT-associated RNA-dependent DNA-polymerase (RDDP) (Human immunodeficiency virus type 1 group M subtype B, UniProt P04585).
T2 construct: The full length HIV-1 RT group M subtype B was expressed and purified; made in house
Briefly: biochemical. Further details: species or system HIV-1 group M subtype B. The method, then: The HIV-1 RT-associated RNA-Dependent DP activity was measured as previously described. […] The enzymatic reaction was stopped by the addition of EDTA.

`COc1ccc(-c2ccccc2C(N)=O)cc1C=NNc1nc(-c2ccc(Cl)cc2)cs1` [EMAC2062, 2-{3-[{2-[4-(4-chlorophenyl)-1,3-thiazol-2-yl]hydrazin-1-ylidene}methyl]-4-methoxyphenyl}benzamide bromide]: the 50% inhibitory concentration (IC50) (usually the concentration at which inhibition is half-maximal) came out at 8 ± 2 µM in data set [1] and 17 ± 2 µM in data set [2] (read-out: RDDP IC50). The matching figures for `COc1ccc(-c2csc(N/N=C/c3cc(-c4ccccc4C(N)=O)ccc3OC)n2)cc1` [EMAC2060, 2-{4-methoxy-3-[(1E)-{2-[4-(4-methoxyphenyl)-1,3-thiazol-2-yl]hydrazin-1-ylidene}methyl]phenyl}benzamide bromide]: 21.5 ± 3.5 µM and 27 ± 1 µM.

Regarding `COc1ccc(-c2ccccc2C(N)=O)cc1C=NNc1nc(-c2ccc(Cl)c(Cl)c2)cs1` [EMAC2061, 2-{3-[{2-[4-(3,4-dichlorophenyl)-1,3-thiazol-2-yl]hydrazin-1-ylidene}methyl]-4-methoxyphenyl}benzamide bromide], the IC50 in data set [1] is 6.5 ± 2.5 µM; in data set [2] (read-out: RDDP IC50), 19.5 ± 0.5 µM. With `COc1ccc(-c2ccc(F)cc2)cc1C=NNc1nc(-c2ccc([N+](=O)[O-])cc2)cs1` [EMAC2071, [(4-{2-[2-{[5-(4-fluorophenyl)-2-methoxyphenyl]methylidene}hydrazin-1-yl]-1,3-thiazol-4-yl}phenyl)nitroso]oxidanol bromide], the values for the half-maximal inhibitory concentration (IC50) in data set [1] and in data set [2] (read-out: RDDP IC50) were 19 ± 1 µM and 47.5 ± 11.5 µM, respectively. Taken in the same sequence, the figures for `COc1ccc(-c2ccccc2Br)cc1C=NNc1nc(-c2ccc(Cl)cc2)cs1` [EMAC2066, 2-{[5-(2-bromophenyl)-2-methoxyphenyl]methylidene}hydrazin-1-yl]-4-(4-cholophenyl)-1,3-thiazole bromide] were 47 ± 3 µM and 71.5 ± 6.5 µM. Take `COc1ccc(-c2csc(NN=Cc3cc(-c4ccccc4Br)ccc3OC)n2)cc1` [EMAC2064, 2-{[5-(2-bromophenyl)-2-methoxyphenyl]methylidene}hydrazin-1-yl]-4-(4-methoxyphenyl)-1,3-thiazole bromide]: the IC50 in data set [1] turned out to be 13 ± 4 µM; in data set [2] (read-out: RDDP IC50) it was 32.5 ± 2.5 µM.

`COc1ccc(-c2ccc(F)cc2)cc1C=NNc1nc(-c2ccc(Cl)c(Cl)c2)cs1` [EMAC2069, 4-(3,4-dichlorophenyl)-2-[-2-{[5-(4-fluorophenyl)-2-methoxyphenyl]methylidene}hydrazin-1-yl]-1,3-thiazole bromide]: the results for the IC50 in data set [1] and in data set [2] (read-out: RDDP IC50) were 52.5 ± 10.5 µM and 66 ± 2 µM, respectively. The matching figures for `COc1ccc(-c2ccccc2)cc1C=NNc1nc(-c2ccc([N+](=O)[O-])cc2)cs1` [EMAC2059, 4-(4-nitrophenyl)-2-[2-[(2-methoxy-5-phenylphenyl)methylidene]hydrazin-1-yl]-1,3-thiazole bromide]: 12.8 ± 4.3 µM and 39.5 ± 11.5 µM.

Take `COc1ccc(-c2ccccc2)cc1C=NNc1nc(-c2ccc(Cl)c(Cl)c2)cs1` [EMAC2057, 4-(3,4-dichlorophenyl)-2-[2-[(2-methoxy-5-phenylphenyl)methylidene]hydrazin-1-yl]-1,3-thiazole bromide]: the half-inhibitory concentration (IC50) in data set [1] was 57 ± 5 µM; in data set [2] (read-out: RDDP IC50), 88 ± 12 µM. Taken in the same sequence, the figures for `COc1ccc(-c2ccc(F)cc2)cc1C=NNc1nc(-c2ccc(Cl)cc2)cs1` [EMAC2070, 4-(4-chlorophenyl)-2-[-2-{[5-(4-fluorophenyl)-2-methoxyphenyl]methylidene}hydrazin-1-yl]-1,3-thiazole bromide] were 55.5 ± 1.5 µM and 59 ± 6 µM. Take `COc1ccc(-c2ccccc2C(N)=O)cc1/C=N/Nc1nc(-c2ccc([N+](=O)[O-])cc2)cs1` [EMAC2063, 2-{3-[(2-{4-[4-nitrophenyl]-1,3-thiazol-2-yl}hydrazin-1-ylidene)methyl]-4-methoxyphenyl}benzamide bromide]: the concentration for half-maximal inhibition (IC50) in data set [1] came out at 4.5 ± 0.5 µM; in data set [2] it was 8 µM. For the compound `COc1ccc(-c2csc(NN=Cc3cc(-c4ccccc4)ccc3OC)n2)cc1` [EMAC2056, 2-[2-[(2-Methoxy-5-Phenylphenyl)methylidene]hydrazin-1-yl]-4-(4-Methoxyphenyl)-1,3-Thiazole Bromide], the IC50 in data set [1] was found to be 19.5 ± 5.5 µM; in data set [2] (read-out: RDDP IC50), 36 ± 5 µM. With `COc1ccc(-c2ccccc2C(N)=O)cc1/C=N/Nc1nc(-c2ccc([N+](=O)[O-])cc2)cs1` (as salt: bromide) [EMAC2063, 2-{3-[(2-{4-[4-nitrophenyl]-1,3-thiazol-2-yl}hydrazin-1-ylidene)methyl]-4-methoxyphenyl}benzamide bromide], the melting point (in general, the temperature of the solid-liquid transition) was 208 °C (dec.).

On to `COc1ccc(-c2ccccc2)cc1C=NNc1nc(-c2cccc(Cl)c2)cs1` [EMAC2058, 4-(3-chlorophenyl)-2-[2-[(2-methoxy-5-phenylphenyl)methylidene]hydrazin-1-yl]-1,3-thiazole bromide], for which the IC50 in data set [1] came out at 46 ± 1 µM; in data set [2] (read-out: RDDP IC50) it was 56.5 ± 9.5 µM. On to `COc1ccc(-c2csc(NN=Cc3cc(-c4ccc(F)cc4)ccc3OC)n2)cc1` [EMAC2068, 2-[2-{[5-(4-fluorophenyl)-2-methoxyphenyl]methylidene}hydrazin-1-yl]-4-(4-methoxyphenyl)-1,3-thiazole bromide], for which the 50% inhibitory concentration (IC50) worked out at 29.5 ± 3.5 µM in data set [1] and 61.5 ± 8.5 µM in data set [2] (read-out: RDDP IC50). On to `COc1ccc(-c2ccccc2Br)cc1C=NNc1nc(-c2ccc([N+](=O)[O-])cc2)cs1` [EMAC2067, 2-{[5-(2-bromophenyl)-2-methoxyphenyl]methylidene}hydrazin-1-yl]-4-(4-nitrophenyl)-1,3-thiazole bromide], for which the half-inhibitory concentration (IC50) in data set [1] worked out at 27 ± 5 µM; in data set [2] (read-out: RDDP IC50), 30 ± 3 µM.

In the case of `COc1ccc(-c2ccccc2Br)cc1C=NNc1nc(-c2ccc(Cl)c(Cl)c2)cs1` [EMAC2065, 2-{[5-(2-bromophenyl)-2-methoxyphenyl]methylidene}hydrazin-1-yl]-4-(3,4-dicholophenyl)-1,3-thiazole bromide], the IC50 was found to be 15 ± 1 µM in data set [1] and 53.5 ± 15.5 µM in data set [2] (read-out: RDDP IC50).
